Experimental data reported in patent publication US10220072B2, “Mesalamine for the treatment of cancer” (Cipla Limited, priority 2016, dated 2019).
Where two headings read alike, the source gives them in different places.

Experiments:
[1] = system: Human renal cell carcinoma cell line (A498); test: In vivo anti-tumor efficacy in xenograft model; design: species or system female athymic nude mice
Method: Healthy 10 female athymic nude mice were recruited for the donor cell inoculation. Animals were subcutaneously injected at flank region with 10 million A498 cells suspended in 200 μl of media and matrigel. Animals were monitored for solid tumor growth. […] Tumors were fragmented in to ˜30 mg size. […] Tumor bearing animals were selected from the experimental animals and grouped on basis of tumor size, into six groups containing 7 animals in each group. […] Group 3 received mesalamine at 250 mg/kg. [table] The tumor sizes were measured weekly twice from the date of tumor appearance till the end of the experiment. Tumor size was measured by digital vernier caliper (MITUTOYO) by measuring length (L=longest axis) and width (W=shortest axis). […] From the tumor volume data mean tumor volume and % tumor growth inhibition (% TGI) were determined.

[2] = system: 10 human tumor xenograft-derived cell suspensions or tumor cell lines of renal cancer; test: Clonogenic assay: ex vivo colony formation (anchorage independent growth) in semi-solid medium; format: cell-based; conditions: for IC50: Homo sapiens, mean across 10 renal cancer tumor models, test concentrations 0.0698 mM to 3 mM
Method: In the present study, mesalamine was characterized for their ability to inhibit anchorage independent growth and ex vivo colony formation of tumor cells in semi-solid medium. Mesalamine was tested against 10 human tumor xenograft-derived cell suspensions or tumor cell lines of renal cancer. Test concentrations ranged from 0.0698 mM to 3 mM.
Cell lines were routinely passaged one or twice weekly. All cells were grown at 37° C. in a humidified atmosphere with 5% CO2 in RPMI 1640 medium (Biochrom) supplemented with 10% (v/v) fetal calf serum and 0.1 mg/mL gentamicin. The percentage of viable cells was determined in a Neubauer-hemocytometer using trypan blue exclusion.
Tumor xenografts (patient-derived, as well as cell line-derived xenografts) were passaged as subcutaneous xenografts in NMRI nu/nu mice. At a tumor volume of 400-1000 mm^3 tumor-bearing mice were sacrificed and tumors were collected under sterile conditions without delay according to the relevant Oncotest SOPs and the relevant animal welfare guidelines published by the FELASA and the GV-SOLAS. Tumors were mechanically disaggregated and subsequently incubated with an enzyme cocktail consisting of collagenase type IV (41 U/mL), DNase I (125 U/mL), hyaluronidase type III (100 U/mL), and dispase II (1.0 U/mL) in RPMI 1640 medium (Life Technologies) at 37° C. for 60-120 minutes. Cells were passed through sieves of 100 μm and 40 μm mesh size (Cell Strainer, BD Falcon™), and washed with RPMI 1640 medium. The percentage of viable cells was determined in a Neubauer-hemocytometer using trypan blue exclusion. Aliquots of the cells were frozen down, and stored in liquid nitrogen. On each day of an experiment, a frozen aliquot of tumor cells was thawed and used for preparation of assay plates.
The clonogenic assay was carried out in a 96 well plate format using ultra low attachment plates. […] Cultures were incubated at 37° C. and 7.5% CO2 in a humidified atmosphere for 8 to 13 days and monitored closely for colony growth using an inverted microscope. […]

[3] = G3, 250 mg/kg p.o. q.d.x21, Day 1
[4] = G3, 250 mg/kg p.o. q.d.x21, Day 6
[5] = G3, 250 mg/kg p.o. q.d.x21, Day 9
[6] = G3, 250 mg/kg p.o. q.d.x21, Day 13
[7] = G3, 250 mg/kg p.o. q.d.x21, Day 16
[8] = G3, 250 mg/kg p.o. q.d.x21, Day 20
[9] = G2, 20 mg/kg p.o. q.d.x21 (sub-therapeutic dose), Day 1
[10] = G2, 20 mg/kg p.o. q.d.x21 (sub-therapeutic dose), Day 6
[11] = G2, 20 mg/kg p.o. q.d.x21 (sub-therapeutic dose), Day 9
[12] = G2, 20 mg/kg p.o. q.d.x21 (sub-therapeutic dose), Day 13
[13] = G2, 20 mg/kg p.o. q.d.x21 (sub-therapeutic dose), Day 16
[14] = G2, 20 mg/kg p.o. q.d.x21 (sub-therapeutic dose), Day 20

Nc1ccc(O)c(C(=O)O)c1 [Mesalamine, 5-amino-2-hydroxybenzoic acid]
Mean Tumor Growth Inhibition (% TGI) [1, 3]: 1.56%
Mean Tumor Volume [1, 3]: 145.26 mm^3
Mean Tumor Growth Inhibition (% TGI) [1, 4]: 51.29%
Mean Tumor Volume [1, 4]: 161.68 mm^3
Mean Tumor Growth Inhibition (% TGI) [1, 5]: 46.01%
Mean Tumor Volume [1, 5]: 250.41 mm^3
Mean Tumor Growth Inhibition (% TGI) [1, 6]: 51.09%
Mean Tumor Volume [1, 6]: 301.82 mm^3
Mean Tumor Growth Inhibition (% TGI) [1, 7]: 47.87%
Mean Tumor Volume [1, 7]: 501.10 mm^3
Mean Tumor Growth Inhibition (% TGI) [1, 8]: 58.08%
Mean Tumor Volume [1, 8]: 536.78 mm^3
inhibiting tumor formation (anti-tumor efficacy by itself) ([1]; at the dose tested (250 mg/kg p.o. q.d.x21)): more than 50%
anti-tumor efficacy compared with standard ([1]; mesalamine 250 mg/kg vs sunitinib 20 mg/kg, p.o. q.d.x21): comparable to sunitinib
IC50 ([2]; continuous exposure 8 to 13 days, read-out: mean relative IC50 value, inhibition of colony formation): 1.21 mM
IC50 ([2]; read-out: second mean IC50 value printed in brackets after the mean relative IC50): 1.26 mM
Bottom plateaus of the concentration-effect curves of responding tumor models ([2]; responding tumor models): 0 to 18%

CCN(CC)CCNC(=O)c1c(C)[nH]c(/C=C2\C(=O)Nc3ccc(F)cc32)c1C [Sunitinib]
Mean Tumor Growth Inhibition (% TGI) [1, 9]: 1.47%
Mean Tumor Volume [1, 9]: 145.40 mm^3
Mean Tumor Growth Inhibition (% TGI) [1, 10]: 47.31%
Mean Tumor Volume [1, 10]: 174.90 mm^3
Mean Tumor Growth Inhibition (% TGI) [1, 11]: 43.52%
Mean Tumor Volume [1, 11]: 261.95 mm^3
Mean Tumor Growth Inhibition (% TGI) [1, 12]: 44.80%
Mean Tumor Volume [1, 12]: 340.62 mm^3
Mean Tumor Growth Inhibition (% TGI) [1, 13]: 53.39%
Mean Tumor Volume [1, 13]: 448.05 mm^3
Mean Tumor Growth Inhibition (% TGI) [1, 14]: 50.78%
Mean Tumor Volume [1, 14]: 630.25 mm^3
